Structures can show the parent of a compound that is named as a salt.
Experiments:
BMI1 = assay: Western blotting of BMI1 protein levels in GBM spheres; assay type: cell-based, human; conditions: for BMI1 levels: GBM spheres, 72 hours, Western blotting
Method: Different GBM cells were treated with DMSO or different concentrations of test compounds for 72 hours. Cells were lysed in Cell Lysis Buffer (Cell Signaling, #9803) supplemented with Protease Inhibitor Cocktail (Sigma, #P8340), spun down for 30 minutes at 4° C., after which the supernatant was collected at every time point indicated. Western blotting analysis was performed on all samples as described above. BMI1 loss started at 6-12 hours, coinciding with an upper shift and hyper-phosphorylation of BMI1 at 12-24 hours and complete depletion at 72 hours.
GBM cells were treated with DMSO or different concentrations of the test compounds for 72 hours. Cells were lysed in Cell Lysis Buffer (Cell Signaling, #9803) supplemented with Protease Inhibitor Cocktail (Sigma, #P8340), sonicated briefly while on ice and spun down for 30 minutes at 4° C., after which the supernatant was collected. For each sample, 2 uL of lysate was mixed well into 198 uL de-ionized water. Next, 10 uL of this diluted sample was added to a well in a 96 well plate in quadruplets and mixed with Protein Assay Dye Reagent Concentrate (Bio-Rad, #500-0006) (which was diluted 1:5 with water). BSA standards of 25 ng, 50 ng, 100 ng, 200 ng and 250 ng were also used to the plate and mixed with the reagent. The plate was read in a plate reader at 600 nm and samples were calibrated to the standards to determine the concentration of protein. Using the NuPAGE system (Invitrogen), 25 ug of protein was mixed with NuPAGE LDS 4× Sample Buffer (#NP0007), NuPAGE 10× Reducing Agent (#NP0004) and water, mixed well and heated at 96° C. for 15 minutes to denature the protein. The samples were then loaded into 4-12% Bis-Tris gels (Novex (Invitrogen), #0323) with a protein ladder (Novex (Invitrogen) Sharp Pre-stained protein ladder, #57318) and run at 100-120V for about 2 hours with NuPAGE 20×SDS MES Running Buffer (#NP0002) diluted with water. Next, the gel was taken out and loaded into a NuPAGE transfer cassette with a polyvinylidene membrane with NuPAGE 20× Transfer Buffer (#NP0006-1) diluted with water and methanol. Proteins were transferred for 1 hour at 30V at room temperature. Blocking was performed using the Millipore SNAP i.d. Protein Detection system in 0.25% non-fat dry milk in 0.1% Tween in PBS (PBST). […] Protein signals were detected using ECL Western Blotting Substrate (Pierce, #32106) and filmed.
BMI1 levels in GBM spheres were then analyzed by Western Blotting over a time-course of 120 hours upon treatment with compound 14 at 7-10 nM conc. […]

PD-L1 = assay: Western blotting of PD-L1 levels in GBM spheres; assay type: cell-based, human
[1] = Bi-directional Caco-2 transport assay; assay type: in vitro ADME; conditions: human; for Papp at 90 min, 5 μM: Caco-2; for Papp A→B at 90 min, 5 μM / Papp B→A at 90 min, 5 μM: Caco-2, pH 7.4
Method: The objective of the study is to evaluate test compounds as substrates for efflux transporter using Caco-2 cell line. To assess the functionality of P-glycoprotein (P-gp), loperamide was run as a positive control (Apical and basolateral HBSS pH 7.4).
5 mM DMSO stock of test compounds and loperamide was diluted 1000-folds in HBSS having 0.1% DMSO to prepare concentrations of 5 μM.
Caco-2 cells were grown in DMEM (20% FBS) until 85-90% confluence. After attaining required confluence, cells were trypsinized and seeded into 24 well millcell plates at a density of 0.6×10^5 cells/insert. The plates were maintained for 21 days at 37° C. in CO2 incubator with change of medium every alternative day. Monolayer integrity was monitored by measuring Trans-epithelial electrical resistance (TEER) from day 15.
Caco-2 cell monolayer was washed twice with HBSS and incubated for 40 min in CO2 incubator. TEER values were measured and wells showing TEER values above 230 ohms·cm^2 were taken for experiments. The study was performed in loperamide and test compounds by adding 400 μL of loperamide prepared in HBSS in apical (A-B transport) followed by addition of 800 μL of HBSS on basal side and for B-A transport 800 μL of loperamide prepared in HBSS was dosed in basal followed by addition of 400 μL HBSS on apical side. At selected time points (0, 15, 30, 60 and 90 mins) an aliquot of 50 μL was collected from the receiver compartment for determination of test compound concentrations. The volume withdrawn was replaced immediately with HBSS buffer. TEER was measured at the end to the experiment to confirm any damage of monolayer while performing experiment. Those wells with TEER not meeting the criteria were excluded from the study.
A 50 μL of test compound samples collected at respective time points and submitted for LC-MS/MS analysis.
The apparent permeability (Papp) (A−B & B−A) of test compounds and positive control was calculated using the following formula: Papp=dQ/dt/A·Co where, dQ/dt=linear slope of test compound concentration in receptor chamber with time (0, 15, 30, 60 and 90 min) after correcting for dilution; A=area of the filter (0.7 cm^2); and Co=initial concentration of compound in the donor compartment.
Efflux ratio (RE) was calculated using the following equation: RE=PB/A/PA/B where PB/A and PA/B represent the apparent permeability of test compound from the basal to apical and apical to basal side of cell monolayer.
Recovery represents: (amount of the compound recovered from donor at end of incubation+cumulative amount of compound in acceptor at end of incubation+amount of the compound in cell lysate or assay well)/amount of compound in donor solution at time zero*100
Compounds are classified based on Papp values as follows:
A compound having efflux ratio of >2 is considered as having potential as a P-gp substrate.

[2] = Toxicity in preclinical mouse models; assay type: in vivo

Structure (SMILES) | BMI1 levels (BMI1) | PDL1 levels (PD-L1; GBM spheres, Western blotting) | Papp at 90 min, 5 μM [1] | Papp A→B at 90 min, 5 μM [1] | Papp B→A at 90 min, 5 μM [1] | BMI1 protein levels, time-course (BMI1; 7-10 nM, single treatment, time-course of 120 hours) | PD-L1 levels, time-course (PD-L1; 7-10 nM, time-course of 120 hours) | toxicity in vivo [2]
[2H]C1([2H])Oc2ccc(Nc3nc(-c4c(C)nc5ccccn45)cs3)cc2O1 [Compound 17, N-(benzo[d][1,3]dioxol-5-yl-2,2-d2)-4-(2-methylimidazo[1,2-c]pyridin-3-yl)thiazol-2-amine hydrochloride] | Lowered BMI1 levels | increased PDL1 | 3 to 15 ×10⁻⁶ cm/s | 4.9 ± 0.8 ×10⁻⁶ cm/s | 6.4 ± 0.6 ×10⁻⁶ cm/s |  |  | 
[2H]C([2H])([2H])Oc1ccc(Nc2nc(-c3c(C)nc4ccccn34)cs2)cc1 [Compound 15, N-(4-(methoxy-d3)phenyl)-4-(2-methylimidazo[1,2-c]pyridin-3-yl)thiazol-2-amine hydrochloride] | slightly lowered BMI1 levels |  |  |  |  |  |  | 
COc1c(F)cc(Nc2nc(-c3c(C)nc4ccccn34)cs2)cc1F [Compound 14, hydrochloride] | Lowered BMI1 levels |  |  |  |  | reduction in BMI1 protein levels at 72, 96 and 120 hours | modulate of the levels of PD-L1 | appear not to have toxicity in vivo
Cc1nc2ccccn2c1-c1csc(Nc2ccc3c(c2)OC(F)(F)O3)n1 [Compound 16, N-(2,2-difluorobenzo[d][1,3]dioxol-5-yl)-4-(2-methylimidazo[1,2-a]pyridin-3-yl)thiazol-2-amine hydrochloride] |  |  | 3 to 15 ×10⁻⁶ cm/s | 14 ± 3.3 ×10⁻⁶ cm/s | 12.1 ± 0.1 ×10⁻⁶ cm/s |  |  | 

Reference: patent publication US12215106B2, “Pharmaceutical compounds and therapeutic methods” (RUTGERS, THE STATE UNIVERSITY OF NEW JERSEY, priority 2018, dated 2025)
